Laboratory results taken from US20240002416A1 (Rheinische-Friedrich-Wilhelms-Universität Bonn, priority 2020, published 2024).

Tests used:
MRGPRX4-83S [1] = molecular target: T1, MRGPRX4-83S (Homo sapiens, UniProt Q96LA9, L83S); experiment: β-arrestin assay (CHO β-arrestin human MRGPRX4-83S); format: cell-based; parameters: host or cells: CHO β-arrestin cells; settings: for Emax: efficacy based on 100 nM B-16 (set as 100%), read-out: Emax; for EC50: β-arrestin recruitment, CHO cells, MRGPRX4-83S, read-out: EC50 ± SEM
In short: (§1)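 CHO cells, recombinant hMRGPRX4 → β-arrestin recruitment via β-gal complementation. Ca mobilization → recombinant astrocytes (83L) or native LN229 cells (83S).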

MRGPRX4-83S [2] = molecular target: T1, MRGPRX4-83S; experiment: Calcium assay (human glioblastoma LN229 cells expressing the MRGPRX4-83S); format: cell-based; parameters: LN229 glioblastoma cells natively expressing the MRGPRX4-83S; endogenous in cells; host or cells: LN229 human glioblastoma cells; settings: for Emax: LN-229, efficacy based on 30 μM H-1 (set as 100%), read-out: Emax; for Emax / EC50: Table 3; for EC50: calcium mobilization, LN229 cells, MRGPRX4-83S, read-out: EC50 ± SEM
Description: For β-arrestin recruitment assays, recombinant Chinese hamster ovary (CHO) cells expressing the human MRGPRX4 were used (DiscoverX/Eurofins) which allowed to measure β-galactosidase complementation upon β-arrestin recruitment. For calcium mobilization assays, recombinant astrocytes expressing MRGPX4-83L, or LN229 glioblastoma cells natively expressing the MRGPRX4-83S, were used.
The assays were performed as previously described for other rhodopsin-like GPCRs (Müller, C.E.; 8-Benzamidochromen-4-one-2-carboxylic acids: potent and selective agonists for the orphan G protein-coupled receptor GPR35. J. Med. Chem. 2013, 56:5182-97; Müller, C.E. Molecular Recognition of Agonists and Antagonists by the Nucleotide-Activated G Protein-Coupled P2Y2 Receptor. J. Med. Chem. 2017, 60:8425-8440).

human MRGPRX4-83L [3] = molecular target: T2, human MRGPRX4-83L (Homo sapiens, UniProt Q96LA9); experiment: Calcium assay (human MRGPRX4 83L), recombinant astrocytes; format: cell-based; settings: for EC50: calcium mobilization, MRGPRX4-83L, read-out: EC50 ± SEM; for Emax: efficacy based on maximal effect of 1 μM B-16 (set as 100%), read-out: Emax
T2 construct: host or cells: CHO β-arrestin cells
In short: as §1

human MRGPRX4-83L [4] = molecular target: T2, human MRGPRX4-83L; experiment: β-arrestin assay (CHO β-arrestin ARMS1-ProLink 2 human MRGPRX4 83L); format: cell-based; settings: for Emax: efficacy based on maximal effect of 100 nM B-16 (set as 100%), read-out: Emax; for EC50: β-arrestin recruitment, CHO cells, MRGPRX4-83L, read-out: EC50 ± SEM; for IC50: inhibition of the effect of 2.6 μM B-16
In short: as §1

[5] = Table 1, means of 3-4 experiments

T1 sequence (Q96LA9 whole entry L83S): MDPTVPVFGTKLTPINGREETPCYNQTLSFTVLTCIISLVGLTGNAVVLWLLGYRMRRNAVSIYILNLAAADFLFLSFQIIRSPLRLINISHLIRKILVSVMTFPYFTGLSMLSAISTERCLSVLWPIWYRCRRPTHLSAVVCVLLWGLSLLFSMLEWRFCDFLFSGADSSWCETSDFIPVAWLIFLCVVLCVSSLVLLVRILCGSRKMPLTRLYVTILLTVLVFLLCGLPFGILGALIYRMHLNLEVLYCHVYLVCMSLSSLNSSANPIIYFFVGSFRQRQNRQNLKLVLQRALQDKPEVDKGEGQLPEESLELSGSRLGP
T2 sequence (Q96LA9 whole entry): as the sequence (Q96LA9 whole entry L83S) above, with S83L counted along it

Row | Structure (SMILES) | Emax (MRGPRX4-83S [1]; Table 3) [%] | EC50 (MRGPRX4-83S [1]; Table 3) [nM] | EC50 (MRGPRX4-83S [2]) [µM] | melting point [°C] | EC50 (MRGPRX4-83S [1]; Table 2) [nM] | EC50 (human MRGPRX4-83L [3]; Table 1) [µM] | EC50 (human MRGPRX4-83L [4]; [5]) [µM] | IC50 (human MRGPRX4-83L [3]) [µM] | IC50 (human MRGPRX4-83L [4]; Table 1) [µM] | further results
1 | C#CCn1c(=O)c2c(nc(CCc3ccccc3C)n2CC)n(CCCCP(=O)(O)O)c1=O [B-32, (4-(7-Ethyl-8-(2-methylphenethyl)-2,6-dioxo-1-(prop-2-yn-1-yl)-1,2,6,7-tetrahydro-3H-purin-3-yl)butyl)phosphonic acid] | 97 | 0.0424 ± 0.015 | 0.000441 ± 0.000157 | 152 to 154 |  |  |  |  |  | Emax (MRGPRX4-83S [2]): 111%
2 | C#CCn1c(=O)c2c(nc(CCc3ccc(C(C)C)cc3)n2CC2CCCC2)n(CCCCP(=O)(O)O)c1=O [B-43, (4-(7-(cyclopentylmethyl)-8-(4-isopropylphenethyl)-2,6-dioxo-1-(prop-2-yn-1-yl)-1,2,6,7-tetra-hydro-3H-purin-3-yl)butyl)phosphonic acid] | 53 | 10.7 ± 7.1 | > 10 | 125 to 127 |  |  |  |  |  | 
3 | C#CCn1c(=O)c2c(nc(CCc3ccc(I)cc3)n2CC2CCCC2)n(CCCCP(=O)(O)O)c1=O [B-39, (4-(7-(cyclopentylmethyl)-8-(4-iodophenethyl)-2,6-dioxo-1-(prop-2-yn-1-yl)-1,2,6,7-tetrahydro-3H-purin-3-yl)butyl)phosphonic acid] | 76 | 0.773 ± 0.106 | 0.143 ± 0.066 | 119 to 121 |  |  |  |  |  | IC50 (MRGPRX4-83S [2]): 0.0161 ± 0.0084 µM; Emax (MRGPRX4-83S [2]): 23%
4 | C#CCn1c(=O)c2[nH]c(CCc3ccccc3OC)nc2n(CCCCP(=O)(O)OCC)c1=O [D-2, Ethyl hydrogen (4-(8-(2-methoxyphenethyl)-2,6-dioxo-1-(prop-2-yn-1-yl)-1,2,6,7-tetrahydro-3H-purin-3-yl)butyl)phosphonate] |  |  |  | 172 to 174 | 0.493 ± 0.104 | 3.32 ± 0.61 | 0.113 ± 0.033 |  |  | Emax (MRGPRX4-83S [1]; Table 2): 141%; Emax (human MRGPRX4-83L [3]; Table 1): 103%; Emax (human MRGPRX4-83L [4]; Table 1): 122%
5 | C#CCn1c(=O)c2c(nc(CCc3cccc(C(F)(F)F)c3)n2C)n(CCCCP(=O)(OCC)OCC)c1=O [C-5, Diethyl (4-(7-methyl-2,6-dioxo-1-(prop-2-yn-1-yl)-8-(3-(trifluoromethyl)phenethyl)-1,2,6,7-tetrahydro-3H-purin-3-yl)butyl)phosphonate] |  |  |  | 121 to 124 | > 10000 | > 10 | > 10 | > 10 | > 10 | 
6 | C#CCn1c(=O)c2[nH]c(CCc3ccccc3Br)nc2n(CCCCS(N)(=O)=O)c1=O [F-1, 4-(8-(2-Bromophenethyl)-2,6-dioxo-1-(prop-2-yn-1-yl)-1,2,6,7-tetrahydro-3H-purin-3-yl)butane-1-sulfonamide] |  |  |  | 216 to 219 | > 10000 | > 10 | > 10 | > 10 | > 10 | 
7 | C#CCn1c(=O)c2[nH]c(CCc3cccc(Br)c3)nc2n(CCCCP(=O)(OCC)OCC)c1=O [C-3, Diethyl (4-(8-(3-bromophenethyl)-2,6-dioxo-1-(prop-2-yn-1-yl)-1,2,6,7-tetrahydro-3H-purin-3-yl)butyl)phosphonate] |  |  |  | 133 to 135 | > 10000 | > 10 | > 10 | > 10 | > 10 | 
8 | C#CCn1c(=O)c2c(nc(CCc3ccccc3I)n2CC)n(CCCCP(=O)(O)O)c1=O [B-31, (4-(7-Ethyl-8-(2-iodophenethyl)-2,6-dioxo-1-(prop-2-yn-1-yl)-1,2,6,7-tetrahydro-3H-purin-3-yl)butyl)phosphonic acid] | 89 | 0.0937 ± 0.0523 |  | 202 to 204 |  |  |  |  |  | EC50 (human MRGPRX4-83L [3]; Table 4): 0.000389 ± 9.2e-05 µM; Emax (human MRGPRX4-83L [3]; Table 4): 103%; Emax (human MRGPRX4-83L [4]; Table 4): 94%; EC50 (human MRGPRX4-83L [4]; Table 4): 0.0874 ± 0.0242 µM
9 | CCn1c(=O)c2[nH]c(CCc3cccc(OC)c3)nc2n(CCCCS(=O)(=O)O)c1=O [E-2, 4-(1-Ethyl-8-(3-methoxyphenethyl)-2,6-dioxo-1,2,6,7-tetrahydro-3H-purin-3-yl)butane-1-sulfonic acid] |  |  |  | 179 to 181 | > 10000 | > 10 | > 10 | > 10 | > 10 | 
